In this test the target is T1, human TRPV4 (Homo sapiens, UniProt Q9HBA0).
T1 construct: host or cells: tetracycline-inducible Flp-In T-REx 293 cells
The experiment in a line: Hypotonicity-induced Ca2+ influx (Fluo-4, FDSS). Format: cell-based. The procedure, abridged: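 Flp-In T-REx 293 cells with tetracycline-induced human TRPV4, loaded with Fluo-4 for 60 min at 25 °C. Compound added 5 min before hypotonic mannitol/CaCl2 solution. Ca2+ signal recorded for 4.5 min on FDSS.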

[1] abbreviates: Flp-In T-REx 293 cells expressing human TRPV4, examples listed under heading 'Human IC50<50 nM'.
[2] abbreviates: Flp-In T-REx 293 cells stably expressing human TRPV4, compounds listed by potency bin (<10 nM Tables 96-1/96-2, <3 nM Table 97).

Bounds are passed on as bounds.

T1 sequence (Q9HBA0 whole entry): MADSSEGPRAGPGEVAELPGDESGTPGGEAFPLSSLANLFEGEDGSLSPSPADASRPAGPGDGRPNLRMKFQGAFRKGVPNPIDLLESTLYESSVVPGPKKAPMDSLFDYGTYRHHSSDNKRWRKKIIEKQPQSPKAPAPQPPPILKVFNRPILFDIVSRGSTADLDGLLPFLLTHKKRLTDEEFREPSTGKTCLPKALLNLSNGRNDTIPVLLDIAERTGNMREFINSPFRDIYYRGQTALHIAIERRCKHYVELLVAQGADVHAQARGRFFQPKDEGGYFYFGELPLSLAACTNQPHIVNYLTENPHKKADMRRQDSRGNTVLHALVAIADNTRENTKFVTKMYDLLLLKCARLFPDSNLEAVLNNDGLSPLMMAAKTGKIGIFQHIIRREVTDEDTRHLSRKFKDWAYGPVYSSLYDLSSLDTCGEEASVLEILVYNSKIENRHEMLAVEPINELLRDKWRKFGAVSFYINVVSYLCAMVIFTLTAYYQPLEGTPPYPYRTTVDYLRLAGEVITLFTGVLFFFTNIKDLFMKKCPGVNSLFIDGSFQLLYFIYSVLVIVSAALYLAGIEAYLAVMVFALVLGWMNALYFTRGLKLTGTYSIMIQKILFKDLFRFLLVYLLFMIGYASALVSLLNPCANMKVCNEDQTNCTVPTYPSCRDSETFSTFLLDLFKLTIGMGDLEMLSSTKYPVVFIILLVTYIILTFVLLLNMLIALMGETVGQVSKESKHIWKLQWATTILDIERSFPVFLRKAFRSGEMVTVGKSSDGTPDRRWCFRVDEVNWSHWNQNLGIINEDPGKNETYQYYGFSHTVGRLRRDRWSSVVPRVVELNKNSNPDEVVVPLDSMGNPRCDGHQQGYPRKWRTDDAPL

What is called IC50 is the concentration needed to halve the response being measured. Higher therefore signals lower potency. On to `O=C(Cc1cccc(S(F)(F)(F)(F)F)c1)N1CCCc2nc(C3(c4ccccc4)CC3)[nH]c(=O)c2C1` [17-31], for which the half-maximal inhibitory concentration (IC50) reads like this: under setting [1], less than 50 nM; under setting [2], less than 10 nM.
Turning to `O=C(C(O)c1cccc(S(F)(F)(F)(F)F)c1)N1CCCc2nc(C3(c4cccc(F)c4)CC3)[nH]c(=O)c2C1` (stereo not shown) [17-32], the IC50 was less than 50 nM under setting [1] and less than 10 nM under setting [2].
For `O=C(C(O)c1cccc(Oc2ccccc2)c1)N1CCCc2nc(C3(c4cccc(Cl)c4)CC3)[nH]c(=O)c2C1` (stereo not shown) [17-33], in that order: less than 50 nM and less than 10 nM.
For `O=C(C(O)c1cccc(-c2ccc(Cl)cc2)c1)N1CCCc2nc(C3(c4cccc(F)c4)CC3)[nH]c(=O)c2C1` (stereo not shown) [17-34], in that order: less than 50 nM and less than 10 nM.
Regarding `O=C([C@H](O)c1cccc(F)c1F)N1CCCc2nc(C3(c4cccc(Cl)c4)CC3)[nH]c(=O)c2C1` [17-35], the IC50 under setting [1] is less than 50 nM and the IC50 under setting [2] is less than 10 nM.
The matching figures for `O=C([C@H](O)c1cccc(C(F)(F)F)c1)N1CCCc2nc(C3(c4cccc(F)c4)CC3)[nH]c(=O)c2C1` [17-36]: less than 50 nM and less than 10 nM.
The matching figures for `O=C([C@H](O)c1cccc(C(F)(F)F)c1)N1CCCc2nc(C3(c4ccccc4)CC3)[nH]c(=O)c2C1` [17-37]: less than 50 nM and less than 10 nM.
For `O=C(C(O)c1cccc(SC(F)(F)F)c1)N1CCCc2nc(C3(c4ccccc4)CC3)[nH]c(=O)c2C1` (stereo not shown) [17-38], in that order: less than 50 nM and less than 10 nM.
Turning to `CC(C)c1cccc(C2(c3nc4c(c(=O)[nH]3)CN(C(=O)C(O)c3cccc(S(F)(F)(F)(F)F)c3)CCC4)CC2)c1` (stereo not shown) [17-39], the IC50 is, setting by setting: under setting [1], less than 50 nM; under setting [2], less than 10 nM.
The matching figures for `O=C(C(O)c1cccc(Oc2cccc(C(F)(F)F)c2)c1)N1CCCc2nc(C3(c4cccc(Cl)c4)CC3)[nH]c(=O)c2C1` (stereo not shown) [17-40]: less than 50 nM and less than 10 nM.
Turning to `O=C(C(O)c1cccc(S(F)(F)(F)(F)F)c1)N1CCCc2nc(C3(c4ccccc4)CC3)[nH]c(=O)c2C1` (stereo not shown) [17-41], the IC50 was less than 50 nM under setting [1] and less than 10 nM under setting [2].
In turn, `O=C(C(O)c1cccc(Cl)c1F)N1CCCc2nc(C3(c4ccccc4)CC3)[nH]c(=O)c2C1` (stereo not shown) [17-42] had an IC50 under setting [1] of less than 50 nM.
For the molecule `O=C(C(O)c1ccccc1C(F)(F)F)N1CCCc2nc(C3(c4cccc(Cl)c4)CC3)[nH]c(=O)c2C1` (stereo not shown) [17-43], the IC50 under setting [1] was less than 50 nM.
The same measure, in the same setting: as for `CC(C)c1cccc(C2(c3nc4c(c(=O)[nH]3)CN(C(=O)C(O)c3cccc(SC(F)(F)F)c3)CCC4)CC2)c1` (stereo not shown) [17-44], the figure is less than 50 nM.
Turning to `CC(C)c1cccc(C2(c3nc4c(c(=O)[nH]3)CN(C(=O)C(O)c3cccc(-c5cccc(C(F)(F)F)c5)c3)CCC4)CC2)c1` (stereo not shown) [17-45], the IC50 under setting [1] was less than 50 nM.
`CC(C(=O)N1CCCc2nc(C3(c4ccccc4)CC3)[nH]c(=O)c2C1)c1cccc(C(F)(F)F)c1` (stereo not shown) [17-46] yielded an IC50 under setting [1] of less than 50 nM.
For the molecule `CC(C)(C)c1cccc(C(O)C(=O)N2CCCc3nc(C4(c5ccccc5)CC4)[nH]c(=O)c3C2)c1` (stereo not shown) [17-47], the IC50 under setting [1] is less than 50 nM.
Same read-out and setting: as for `O=C(C(O)c1cccc(-c2cccc(F)c2)c1)N1CCCc2nc(C3(c4cccc(F)c4)CC3)[nH]c(=O)c2C1` (stereo not shown) [17-48], the figure is less than 50 nM.
The same measure, in the same setting: with `CC(C)c1cccc(C2(c3nc4c(c(=O)[nH]3)CN(C(=O)C(O)c3cccc(-c5cccc(OC(F)(F)F)c5)c3)CCC4)CC2)c1` (stereo not shown) [17-49] the figure was less than 50 nM; with `O=C(C(O)c1cccc(OCC(F)(F)F)c1)N1CCCc2nc(C3(c4cccc(Cl)c4)CC3)[nH]c(=O)c2C1` (stereo not shown) [17-50], less than 50 nM.
The same measure, in the same setting: with `O=C(Cc1cccc(C(F)(F)F)c1)N1CCCc2nc(C3(c4ccccc4)CC3)[nH]c(=O)c2C1` [17-51] the figure was less than 50 nM.
Regarding `O=C(C(O)c1cccc(Oc2ccccc2)c1)N1CCCc2nc(C3(c4cccc(F)c4)CC3)[nH]c(=O)c2C1` (stereo not shown) [17-52], the IC50 under setting [1] is less than 50 nM.
On the same count and under the same terms, with `O=C(C(O)c1cccc(C2CC2)c1)N1CCCc2nc(C3(c4cccc(F)c4)CC3)[nH]c(=O)c2C1` (stereo not shown) [17-53] the figure was less than 50 nM.

Values taken from patent US12673946B2, “Pyrimidin-4(3H)-one derivatives as TRPV4 antagonists” (RaQualia Pharma Inc., priority 2020, dated 2026).
